Assay results reported in article PMC7714403 (JCI Insight, 2020).

Legend:
[1] = biological target: FRAP (Homo sapiens, UniProt P42345); assay: KiNativ, OCI cells live cell; assay type: cell-based; details: 2 h, labeling site ATP, peptide […]
[2] = biological target: MELK (Homo sapiens, UniProt Q14680); assay: KiNativ, OCI cells live cell; assay type: cell-based; details: 2 h, labeling site Lys2, peptide […]
[3] = biological target: PI4KA (Homo sapiens, UniProt P42356); assay: KiNativ, OCI cells live cell; assay type: cell-based; details: 2 h, labeling site ATP, peptide […]
[4] = biological target: GSK3B (Homo sapiens, UniProt P49841); assay: KiNativ, OCI cells live cell; assay type: cell-based; details: 2 h, labeling site Lys2, peptide […]
[5] = biological target: CK2a1 (Homo sapiens, UniProt P68400); assay: KiNativ, OCI cells live cell; assay type: cell-based; details: 2 h, labeling site Protein Kinase Domain, peptide […]
[6] = biological target: MST3 (Homo sapiens, UniProt Q9Y6E0); assay: KiNativ, OCI cells live cell; assay type: cell-based; details: labeling site Lys2, peptide DIKAANVLLSEHGEVK
[7] = biological target: ZAK (Homo sapiens, UniProt Q9NYL2); assay: KiNativ, OCI cells live cell; assay type: cell-based; details: 2 h, labeling site Lys1, peptide […]
[8] = biological target: MAP2K7 (Homo sapiens, UniProt O14733); assay: KiNativ, OCI cells live cell; assay type: cell-based; details: labeling site Lys2, peptide DVKPSNILLDER
[9] = tested on: OCI-AML3 cells; assay: Cell cycle analysis; assay type: cell-based, human; details: 20 nM, 12–24 hours
Procedure: (§1) Luc+ or MOLM13-Res -Luc+ cells, 0.5 million OCI-AML3 -Luc+ cells, and 10,000 Ba/F3-FLT3-ITD/F691L-GFP+ cells. Weekly tumor engraftment of cell line xenograft models were assessed after injection of D-luciferin (150mg/kg i.p.; Gold Biotechnology, Inc, St. Louis, MO) on Xenogen IVIS-200 imaging system (Perkin Elmer, Waltham, MA) or GFP monitoring by peripheral blood via BD LSR II flow cytometer (BD Biosciences, San Jose, CA). Signal intensity was analyzed using Living Image Software (PerkinElmer) or FlowJo v10.0.08 software (FlowJo, LLC, Ashland, OR). Mice were randomized to treatment groups based on signal intensity and leukemia burden. Drug treatments were started on days 3, 7, or 13 after cell injection in OCI-AML3, MOLM13, and MOLM13-Res xenografts, respectively. In murine AML transplantation model, 1 million FLT3-ITD+/-/IDH2-R140Q+/- splenocytes (in house colony) were intravenously injected in male NSG mice. On day 7, mice were started on drug treatments. […]
(§2) At indicated time points, cells were collected and washed with PBS. CD11b expression was measured using anti-CD11b -APC antibody (BioLegend, San Diego, CA). […] CD11b expression and apoptosis were measured by BD LSR II flow cytometer. […]
(§3) with DAPI in 0.1% Triton-X (ThermoFisher Scientific) PBS for 30 minutes at room temperature and protected from light. The DNA content was determined using a BD LSR II flow cytometer. […]

[10] = tested on: MV4-11, MOLM13, and MOLM13-RES cells; assay: Cell cycle analysis; assay type: cell-based, human; details: 20 nM, 12 hours
Procedure: as §1, §2, §3

[11] = biological target: T1, CHEK2 (Homo sapiens, UniProt O96017); assay: KdELECT binding assay
T1 construct: purchased Eurofins DiscoverX
T1 sequence (O96017 whole entry): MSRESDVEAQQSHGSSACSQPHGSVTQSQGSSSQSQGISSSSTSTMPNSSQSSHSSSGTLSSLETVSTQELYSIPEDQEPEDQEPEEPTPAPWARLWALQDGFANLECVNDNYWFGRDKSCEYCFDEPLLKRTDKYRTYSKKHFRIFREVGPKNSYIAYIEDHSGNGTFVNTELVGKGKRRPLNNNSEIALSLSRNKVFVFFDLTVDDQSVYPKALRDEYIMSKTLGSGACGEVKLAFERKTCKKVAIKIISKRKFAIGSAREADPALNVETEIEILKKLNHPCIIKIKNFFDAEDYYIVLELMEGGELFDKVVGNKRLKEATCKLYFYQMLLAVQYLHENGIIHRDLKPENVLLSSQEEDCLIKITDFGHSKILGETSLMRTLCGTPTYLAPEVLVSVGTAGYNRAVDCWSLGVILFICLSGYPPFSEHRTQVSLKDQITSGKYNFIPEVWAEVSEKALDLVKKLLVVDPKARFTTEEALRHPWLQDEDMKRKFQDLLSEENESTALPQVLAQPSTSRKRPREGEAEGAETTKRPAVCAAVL

Sequence of ZAK (Q9NYL2 whole entry): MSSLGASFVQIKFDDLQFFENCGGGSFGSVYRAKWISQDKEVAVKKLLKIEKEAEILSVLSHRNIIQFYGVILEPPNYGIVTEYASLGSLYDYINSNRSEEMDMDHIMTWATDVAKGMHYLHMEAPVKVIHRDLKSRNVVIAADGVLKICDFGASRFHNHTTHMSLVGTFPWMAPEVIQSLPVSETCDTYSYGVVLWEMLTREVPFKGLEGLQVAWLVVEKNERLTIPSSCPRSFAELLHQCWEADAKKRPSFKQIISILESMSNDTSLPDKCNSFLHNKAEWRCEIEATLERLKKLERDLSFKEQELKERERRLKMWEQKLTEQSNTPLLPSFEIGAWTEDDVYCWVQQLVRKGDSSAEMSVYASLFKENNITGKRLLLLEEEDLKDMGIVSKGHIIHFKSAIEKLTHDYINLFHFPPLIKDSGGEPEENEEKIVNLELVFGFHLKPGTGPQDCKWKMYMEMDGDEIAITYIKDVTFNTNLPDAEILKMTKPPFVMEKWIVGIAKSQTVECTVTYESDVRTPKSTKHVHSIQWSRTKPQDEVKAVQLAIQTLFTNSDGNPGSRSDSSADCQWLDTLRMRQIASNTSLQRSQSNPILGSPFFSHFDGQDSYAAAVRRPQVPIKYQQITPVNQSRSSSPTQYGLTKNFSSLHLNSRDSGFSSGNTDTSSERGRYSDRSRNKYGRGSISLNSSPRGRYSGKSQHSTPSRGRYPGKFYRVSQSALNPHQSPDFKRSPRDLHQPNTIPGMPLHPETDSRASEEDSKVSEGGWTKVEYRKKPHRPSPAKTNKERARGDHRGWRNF
Sequence of GSK3B (P49841 whole entry, the tested form may be a part): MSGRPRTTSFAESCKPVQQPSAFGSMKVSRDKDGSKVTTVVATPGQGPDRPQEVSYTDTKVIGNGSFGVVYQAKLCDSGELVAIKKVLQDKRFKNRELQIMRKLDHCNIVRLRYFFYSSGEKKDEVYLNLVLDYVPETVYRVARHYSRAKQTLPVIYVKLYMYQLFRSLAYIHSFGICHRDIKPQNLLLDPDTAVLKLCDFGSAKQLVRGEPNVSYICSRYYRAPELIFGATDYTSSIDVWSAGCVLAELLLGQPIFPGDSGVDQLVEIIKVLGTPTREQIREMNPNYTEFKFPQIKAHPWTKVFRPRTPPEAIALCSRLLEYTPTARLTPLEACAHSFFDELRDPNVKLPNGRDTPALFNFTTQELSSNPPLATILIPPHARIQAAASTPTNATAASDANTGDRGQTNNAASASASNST
Sequence of PI4KA (P42356 whole entry): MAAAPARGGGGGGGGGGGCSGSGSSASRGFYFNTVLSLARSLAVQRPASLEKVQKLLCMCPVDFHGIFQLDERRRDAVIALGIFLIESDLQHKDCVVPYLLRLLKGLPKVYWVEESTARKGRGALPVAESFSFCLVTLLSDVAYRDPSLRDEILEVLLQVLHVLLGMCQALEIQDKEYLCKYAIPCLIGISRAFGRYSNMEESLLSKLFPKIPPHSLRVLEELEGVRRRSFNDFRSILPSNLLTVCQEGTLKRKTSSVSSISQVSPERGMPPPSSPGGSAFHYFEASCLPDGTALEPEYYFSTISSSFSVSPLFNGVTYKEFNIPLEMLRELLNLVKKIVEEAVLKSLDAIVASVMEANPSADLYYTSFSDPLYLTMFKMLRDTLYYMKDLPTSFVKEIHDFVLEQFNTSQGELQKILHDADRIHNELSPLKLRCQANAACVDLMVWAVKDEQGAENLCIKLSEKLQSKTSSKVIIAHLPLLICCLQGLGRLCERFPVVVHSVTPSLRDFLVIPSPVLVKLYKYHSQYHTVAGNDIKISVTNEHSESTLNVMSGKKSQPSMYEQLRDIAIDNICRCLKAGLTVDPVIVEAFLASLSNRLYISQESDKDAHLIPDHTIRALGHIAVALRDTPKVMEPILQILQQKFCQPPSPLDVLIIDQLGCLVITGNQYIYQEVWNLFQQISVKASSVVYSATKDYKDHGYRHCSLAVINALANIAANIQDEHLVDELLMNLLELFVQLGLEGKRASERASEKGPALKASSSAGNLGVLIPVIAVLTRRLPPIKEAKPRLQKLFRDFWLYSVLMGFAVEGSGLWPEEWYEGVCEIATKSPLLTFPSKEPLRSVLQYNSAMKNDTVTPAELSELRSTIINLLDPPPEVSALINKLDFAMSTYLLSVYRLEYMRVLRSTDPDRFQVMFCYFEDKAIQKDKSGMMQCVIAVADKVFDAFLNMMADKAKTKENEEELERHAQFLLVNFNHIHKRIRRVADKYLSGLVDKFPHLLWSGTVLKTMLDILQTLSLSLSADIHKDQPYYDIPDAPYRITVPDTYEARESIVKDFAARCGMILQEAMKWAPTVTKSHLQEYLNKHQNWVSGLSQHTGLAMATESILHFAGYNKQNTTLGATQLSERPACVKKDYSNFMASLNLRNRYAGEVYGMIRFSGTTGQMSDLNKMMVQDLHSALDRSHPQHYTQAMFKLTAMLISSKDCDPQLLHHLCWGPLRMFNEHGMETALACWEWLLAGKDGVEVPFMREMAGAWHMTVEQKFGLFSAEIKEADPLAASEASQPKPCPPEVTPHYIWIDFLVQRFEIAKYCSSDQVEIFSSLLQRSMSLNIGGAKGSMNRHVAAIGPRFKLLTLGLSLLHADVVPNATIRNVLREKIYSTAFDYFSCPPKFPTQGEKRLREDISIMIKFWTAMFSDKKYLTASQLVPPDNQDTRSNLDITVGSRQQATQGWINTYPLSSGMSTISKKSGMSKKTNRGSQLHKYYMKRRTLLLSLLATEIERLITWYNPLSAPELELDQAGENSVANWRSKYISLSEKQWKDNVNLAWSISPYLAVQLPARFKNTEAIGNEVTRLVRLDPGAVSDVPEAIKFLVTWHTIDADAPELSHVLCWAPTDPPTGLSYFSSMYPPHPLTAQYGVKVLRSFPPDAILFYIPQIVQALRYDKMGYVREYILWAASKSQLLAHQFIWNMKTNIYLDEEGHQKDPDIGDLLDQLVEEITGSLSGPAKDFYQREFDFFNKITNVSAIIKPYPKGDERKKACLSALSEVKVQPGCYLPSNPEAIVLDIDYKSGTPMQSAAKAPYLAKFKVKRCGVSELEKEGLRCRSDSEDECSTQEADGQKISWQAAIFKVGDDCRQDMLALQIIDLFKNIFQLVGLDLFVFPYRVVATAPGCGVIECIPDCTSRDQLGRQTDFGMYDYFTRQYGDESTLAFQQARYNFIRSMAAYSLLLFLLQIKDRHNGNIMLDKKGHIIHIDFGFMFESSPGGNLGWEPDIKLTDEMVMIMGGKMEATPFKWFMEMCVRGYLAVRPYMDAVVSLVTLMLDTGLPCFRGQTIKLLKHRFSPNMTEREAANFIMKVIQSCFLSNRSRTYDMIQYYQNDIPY
Sequence of MST3 (Q9Y6E0 whole entry): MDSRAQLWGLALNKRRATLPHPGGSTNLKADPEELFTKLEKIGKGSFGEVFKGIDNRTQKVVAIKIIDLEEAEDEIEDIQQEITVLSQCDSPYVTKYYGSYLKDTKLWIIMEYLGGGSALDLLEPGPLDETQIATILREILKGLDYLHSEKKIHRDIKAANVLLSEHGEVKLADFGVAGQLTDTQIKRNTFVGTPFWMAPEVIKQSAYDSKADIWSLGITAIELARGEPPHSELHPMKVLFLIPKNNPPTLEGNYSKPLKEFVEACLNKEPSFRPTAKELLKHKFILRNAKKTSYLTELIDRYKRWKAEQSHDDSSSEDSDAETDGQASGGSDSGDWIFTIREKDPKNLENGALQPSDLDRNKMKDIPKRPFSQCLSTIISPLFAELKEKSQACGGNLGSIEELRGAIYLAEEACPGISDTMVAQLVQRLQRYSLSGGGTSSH
Sequence of MAP2K7 (O14733 whole entry): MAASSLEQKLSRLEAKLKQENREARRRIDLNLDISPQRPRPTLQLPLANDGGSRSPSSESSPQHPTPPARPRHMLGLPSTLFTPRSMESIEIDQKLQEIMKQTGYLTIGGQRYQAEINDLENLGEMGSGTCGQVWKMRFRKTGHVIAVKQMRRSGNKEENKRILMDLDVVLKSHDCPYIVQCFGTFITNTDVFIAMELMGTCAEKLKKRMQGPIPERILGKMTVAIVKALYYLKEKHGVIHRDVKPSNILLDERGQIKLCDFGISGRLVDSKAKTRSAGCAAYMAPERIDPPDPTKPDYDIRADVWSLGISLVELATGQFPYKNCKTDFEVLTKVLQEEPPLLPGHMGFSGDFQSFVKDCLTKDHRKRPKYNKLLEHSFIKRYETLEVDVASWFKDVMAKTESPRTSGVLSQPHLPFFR

SMILES: CN1CCN(Cc2ccc(Nc3ncc(Cl)c(Nc4ccccc4S(=O)(=O)N(C)C)n3)cc2)CC1 [TP-0903]
- inhibition at 0.1 µM [1]: 7.9%
- inhibition at 0.1 µM [2]: 13.5%
- inhibition at 0.1 µM [3]: -14.6%
- inhibition at 0.1 µM [4]: 32.3%
- inhibition at 0.1 µM [5]: -50.8%
- Inhibition [6]: 35.2%
- inhibition at 0.1 µM [7]: 5.3%
- Inhibition [8]: -6.6%
- Cell cycle [9]: G2-M cell cycle arrest
- Cell cycle [10]: G2-M cell cycle arrest
- Kd [11]: < 5 nM
